# Experimental data taken from US9505781B2, “Compositions comprising thienopyrimidine and thienopyridine compounds and methods of use thereof” (The Regents of the University of Michigan, priority 2013, dated 2016).
# Molecular target: T1, menin-MLL interaction (Homo sapiens, UniProt O00255)
# T1 sequence (O00255 1-610): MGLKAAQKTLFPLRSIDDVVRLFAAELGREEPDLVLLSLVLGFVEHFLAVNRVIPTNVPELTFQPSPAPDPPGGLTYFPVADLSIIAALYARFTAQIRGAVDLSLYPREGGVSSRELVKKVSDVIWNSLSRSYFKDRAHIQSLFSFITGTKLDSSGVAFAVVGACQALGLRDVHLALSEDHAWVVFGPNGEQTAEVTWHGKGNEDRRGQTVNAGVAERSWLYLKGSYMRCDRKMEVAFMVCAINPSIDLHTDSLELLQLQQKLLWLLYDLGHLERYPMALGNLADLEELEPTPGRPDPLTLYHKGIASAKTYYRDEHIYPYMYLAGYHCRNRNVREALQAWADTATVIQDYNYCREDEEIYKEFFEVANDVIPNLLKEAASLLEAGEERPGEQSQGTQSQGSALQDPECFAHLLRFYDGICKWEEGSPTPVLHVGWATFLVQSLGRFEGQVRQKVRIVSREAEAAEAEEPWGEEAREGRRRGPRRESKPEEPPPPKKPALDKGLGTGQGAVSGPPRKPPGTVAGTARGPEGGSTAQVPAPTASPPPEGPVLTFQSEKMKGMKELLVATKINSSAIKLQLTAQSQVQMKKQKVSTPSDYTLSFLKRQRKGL
# Assay: biochemical
# Source text: Compounds that inhibit the interaction decrease the fluorescence anisotropy which is being used as a read-out for compound screening and for IC50 determination.
row,Structure (SMILES),IC50
1,NCCS(=O)(=O)Nc1ccc(CC(=O)N2CCN(c3ncnc4sc(CC(F)(F)F)cc34)CC2)cc1 [Compound 50],< 0.1 µM
2,Nc1ccc(CC(=O)N2CCN(c3ncnc4sc(CC(F)(F)F)cc34)CC2)cc1 [Compound 69],0.1 to 0.5 µM
3,N#Cc1nc2ccc(CN3CCC(Nc4ncnc5sc(CC(F)(F)F)cc45)CC3)cc2o1 [Compound 248],0.5 to 2 µM
4,CC(C)S(=O)(=O)Nc1ccc(CC(=O)N2CCN(c3ncnc4sc(CC(F)(F)F)cc34)CC2)cc1 [Compound 56],< 0.1 µM
5,FC(F)(F)Cc1cc2c(N3CCN(c4nnc(CC5CCCC5)s4)CC3)ncnc2s1 [Compound 19],0.5 to 2 µM
6,COc1cc2[nH]c(C#N)cc2c(C)c1CN1CCC(Nc2ncnc3sc(CC(F)(F)F)cc23)CC1 [Compound 383],< 0.1 µM
7,NS(=O)(=O)c1ccc(CN2CCC(CNc3ncnc4sc(CC(F)(F)F)cc34)CC2)c(Cl)c1 [Compound 253],0.1 to 0.5 µM
8,CC(=O)Nc1ccc(CN2CCC(Nc3ncnc4sc(CC(F)(F)F)cc34)CC2)cc1 [Compound 130],0.1 to 0.5 µM
9,O=C(COCc1ccccc1)N1CCN(c2ncnc3sc(CC(F)(F)F)cc23)CC1 [Compound 92],0.5 to 2 µM
10,FC(F)(F)Cc1cc2c(NCC3CCN(Cc4ccc(Cl)cc4)CC3)ncnc2s1 [Compound 261],0.1 to 0.5 µM
11,N#Cc1ccc(CN2CCC(Nc3ncnc4sc(CC(F)(F)F)cc34)CC2)cc1 [Compound 144],0.5 to 2 µM
12,Cc1ccc(CN2CCC(Nc3ncnc4sc(CC(F)(F)F)cc34)CC2)cc1 [Compound 147],0.5 to 2 µM
13,N#Cc1c[nH]c2cc(CN3CCC(Nc4ncnc5sc(CC(F)(F)F)cc45)CC3)ccc12 [Compound 228],0.1 to 0.5 µM
14,COc1ccc(CN2CCC(CNc3ncnc4sc(CC(F)(F)F)cc34)CC2)c(Cl)c1 [Compound 257],0.1 to 0.5 µM
15,COc1cccc(CC(=O)N2CCN(c3ncnc4sc(CC(F)(F)F)cc34)CC2)c1 [Compound 95],0.5 to 2 µM
16,CC(C)CN(c1ccc(CC(=O)N2CCN(c3ncnc4sc(CC(F)(F)F)cc34)CC2)cc1)S(C)(=O)=O [Compound 101],0.5 to 2 µM
17,FC(F)(F)Cc1cc2c(NCC3CCN(Cc4ccc(OC(F)(F)F)cc4)CC3)ncnc2s1 [Compound 271],0.5 to 2 µM

row,Structure (SMILES),IC50
1,CS(=O)(=O)N(CC(F)(F)F)c1ccc(CC(=O)N2CCN(c3ncnc4sc(CC(F)(F)F)cc34)CC2)cc1 [Compound 85],0.1 to 0.5 µM
2,Nc1cccc(CN2CCC(Nc3ncnc4sc(CC(F)(F)F)cc34)CC2)c1 [Compound 157],0.5 to 2 µM
3,N#Cc1cc2cc(CN3CCC(Nc4ncnc5sc(CC(F)(F)F)cc45)C(NC[C@H]4CCCN4C=O)C3)ccc2[nH]1 (stereo partly drawn) [Compound 161],< 0.1 µM
4,NS(=O)(=O)Cc1ccc(CC(=O)N2CCN(C3=NC=NC4SC(CC(F)(F)F)=CC34)CC2)c(Cl)c1 (stereo not drawn) [Compound 286],< 0.1 µM
5,CCCc1cc2c(N3CCN(C4CCCCCC4)CC3)ncnc2s1 [Compound 31],0.5 to 2 µM
6,O=C(Cc1ccccc1O)N1CCN(c2ncnc3sc(CC(F)(F)F)cc23)CC1 [Compound 68],0.1 to 0.5 µM
7,FC(F)(F)Cc1cc2c(NCC3CCN(Cc4ccc(Cl)cc4C(F)(F)F)CC3)ncnc2s1 [Compound 269],0.5 to 2 µM
8,O=C1CCc2cc(CN3CCC(Nc4ncnc5sc(CC(F)(F)F)cc45)CC3)ccc2N1 [Compound 136],0.5 to 2 µM
9,CC(C)NCCS(=O)(=O)Nc1ccc(CC(=O)N2CCN(c3ncnc4sc(CC(F)(F)F)cc34)CC2)cc1 [Compound 60],< 0.1 µM
10,N#Cc1cc2cc(CN3CCC(Nc4ncnc5sc(CC(F)(F)F)cc45)CC3)ccc2n1Cc1cc(OCCCCC2CC2)n[nH]1 [Compound 415],0.1 to 0.5 µM
11,FC(F)(F)Cc1cc2c(NC3CCN(Cc4ccccc4Cl)CC3)ncnc2s1 [Compound 119],0.1 to 0.5 µM
12,NS(=O)(=O)c1ccc(CN2CCC(Nc3ncnc4sc(CC(F)(F)F)cc34)CC2)cc1 [Compound 156],0.5 to 2 µM
13,N#Cc1cc2cc(CN3CC[C@H](Nc4ncnc5sc(CC(F)(F)F)cc45)[C@H](CO)C3)ccc2[nH]1 [Compound 163],< 0.1 µM
14,NS(=O)(=O)Nc1ccc(CC(=O)N2CCN(c3ncnc4sc(CC(F)(F)F)cc34)CC2)cc1 [Compound 47],< 0.1 µM
15,OCc1ccc(CN2CCC(Nc3ncnc4sc(CC(F)(F)F)cc34)CC2)cc1 [Compound 140],0.5 to 2 µM
16,CC(C)c1cc2c(N3CCN(C4=NCC(C)(C)S4)CC3)ncnc2s1 [Compound 30],0.5 to 2 µM

# The next lines start with the values.
row,IC50,Structure (SMILES)
1,< 0.1 µM,N#Cc1cc2cc(CN3CCC(Nc4ncnc5sc(CC(F)(F)F)cc45)CC3)ccc2n1CC(N)=O [Compound 189]
2,< 0.1 µM,Cc1c(CN2CCC(Nc3ncnc4sc(CC(F)(F)F)cc34)CC2)ccc2c1cc(C#N)n2CCN1CCN(C)C(=O)C1 [Compound 356]
3,< 0.1 µM,Cc1c(CN2CCC(Nc3ncnc4sc(CC(F)(F)F)cc34)CC2)ccc2c1cc(C#N)n2CC(O)CO (stereo not drawn) [Compound 300]
4,< 0.1 µM,Cc1c(CN2CCC(Nc3ncnc4sc(CC(F)(F)F)cc34)CC2)ccc2c1cc(C#N)n2CCN1CCS(=O)(=O)CC1 [Compound 368]
5,< 0.1 µM,Cc1c(CN2CCC(Nc3ncnc4sc(CC(F)(F)F)cc34)CC2)ccc2c1cc(C#N)n2CC1CCC(=O)NC1 (stereo not drawn) [Compound 428]
6,< 0.1 µM,N#Cc1cc2cc(CN3CCC(Nc4ncnc5sc(CC(F)(F)F)cc45)CC3)c(F)cc2n1CC(N)=O [Compound 214]
7,< 0.1 µM,Cc1c(CN2CCC(Nc3ncnc4sc(CC(F)(F)F)cc34)CC2)ccc2c1cc(C#N)n2CCN1CCN(C(=O)CCc2ccccc2)CC1 [Compound 341]
8,< 0.1 µM,Cc1nc(Cn2c(C#N)cc3cc(CN4CCC(Nc5ncnc6sc(CC(F)(F)F)cc56)CC4)ccc32)cs1 [Compound 201]
9,< 0.1 µM,N#Cc1cc2cc(CN3CCC(Nc4ncnc5sc(CC(F)(F)F)cc45)CC3)ccc2n1CC1CC1 [Compound 178]
10,< 0.1 µM,N#Cc1cc2c(CO)c(CN3CCC(Nc4ncnc5sc(CC(F)(F)F)cc45)CC3)ccc2n1Cc1cn[nH]c1 [Compound 335]
11,< 0.1 µM,N#Cc1cc2cc(CN3CCC(Nc4ncnc5sc(CC(F)(F)F)cc45)CC3)ccc2n1CCCC(F)(F)F [Compound 223]
12,< 0.1 µM,N#Cc1cc2cc(CN3CCC(Nc4ncnc5sc(CC(F)(F)F)cc45)CC3)ccc2n1CCC(N)=O [Compound 194]
13,< 0.1 µM,Cc1c(CN2CCC(Nc3ncnc4sc(CC(F)(F)F)cc34)CC2)c(O)cc2[nH]c(C#N)cc12 [Compound 384]
14,< 0.1 µM,N#Cc1cc2cc(CN3CCC(Nc4ncnc5sc(CC(F)(F)F)cc45)CC3)ccc2n1CCn1cccn1 [Compound 196]
15,0.1 to 0.5 µM,N#Cc1cc2cc(CN3CCC(Nc4ncnc5sc(CC(F)(F)F)cc45)CC3)ccc2n1CC(O)(CO)COCCC1CCCCC1 (stereo not drawn) [Compound 413]
16,< 0.1 µM,C=C(Br)Cn1c(C#N)cc2cc(CN3CCC(Nc4ncnc5sc(CC(F)(F)F)cc45)CC3)ccc21 [Compound 306]
17,< 0.1 µM,Cc1c(CN2CCC(Nc3ncnc4sc(CC(F)(F)F)cc34)CC2)ccc2c1cc(C#N)n2CCN1CCN(S(=O)(=O)N(C)C)CC1 [Compound 375]

row,IC50,Structure (SMILES)
1,< 0.1 µM,Cc1c(CN2CCC(Nc3ncnc4sc(CC(F)(F)F)cc34)CC2)ccc2c1cc(C#N)n2Cc1cnco1 [Compound 361]
2,0.1 to 0.5 µM,Cc1noc(C)c1Cn1c(C#N)cc2cc(CN3CCC(Nc4ncnc5sc(CC(F)(F)F)cc45)CC3)ccc21 [Compound 241]
3,< 0.1 µM,Cc1c(CN2CCC(Nc3ncnc4sc(CC(F)(F)F)cc34)CC2)ccc2c1cc(C#N)n2CCN1CCN(C(C)C)CC1 [Compound 357]
4,< 0.1 µM,COc1cc2c(cc(C#N)n2CCO)c(C)c1CN1CCC(Nc2ncnc3sc(CC(F)(F)F)cc23)CC1 [Compound 386]
5,0.1 to 0.5 µM,Fc1ccc(CN2CCC(Nc3ncnc4sc(CC(F)(F)F)cc34)CC2)c(F)c1 [Compound 122]
6,< 0.1 µM,Cc1c(CN2CCC(Nc3ncnc4sc(CC(F)(F)F)cc34)CC2)ccc2c1cc(C#N)n2CCN1CCN(C(=O)N(C)C)CC1 [Compound 376]
7,< 0.1 µM,Cc1c(CN2CCC(Nc3ncnc4sc(CC(F)(F)F)cc34)CC2)ccc2c1cc(C#N)n2Cc1cc(O)n[nH]1 [Compound 331]
8,< 0.1 µM,COc1cc2c(cc(C#N)n2Cc2cn[nH]c2)c(C)c1CN1CCC(Nc2ncnc3sc(CC(F)(F)F)cc23)CC1 [Compound 389]
9,< 0.1 µM,Cc1c(CN2CCC(Nc3ncnc4sc(CC(F)(F)F)cc34)CC2)ccc2c1cc(C#N)n2Cc1nccs1 [Compound 326]
10,< 0.1 µM,Cc1c(CN2CCC(Nc3ncnc4sc(CC(F)(F)F)cc34)CC2)ccc2c1cc(C#N)n2Cc1cc(Cc2ccc(=O)[nH]c2)[nH]n1 [Compound 347]
11,< 0.1 µM,N#Cc1cc2c(C(F)F)c(CN3CCC(Nc4ncnc5sc(CC(F)(F)F)cc45)CC3)ccc2n1CC(N)=O [Compound 310]
12,< 0.1 µM,Cc1c(CN2CCC(Nc3ncnc4sc(CC(F)(F)F)cc34)CC2)ccc2c1cc(C#N)n2CC(O)(CO)CCn1ccnn1 (stereo not drawn) [Compound 373]
13,< 0.1 µM,N#Cc1cc2cc(CN3CCC(Nc4ncnc5sc(CC(F)(F)F)cc45)CC3)ccc2n1CS(N)(=O)=O [Compound 210]
14,< 0.1 µM,Cn1ccnc1Cn1c(C#N)cc2cc(CN3CCC(Nc4ncnc5sc(CC(F)(F)F)cc45)CC3)ccc21 [Compound 203]
15,0.1 to 0.5 µM,CNC(=O)CCn1c(C#N)cc2cc(CN3CCC(Nc4ncnc5sc(CC(F)(F)F)cc45)CC3)ccc21 [Compound 239]
16,< 0.1 µM,CCOc1cc2c(cc1CN1CCC(Nc3ncnc4sc(CC(F)(F)F)cc34)CC1)cc(C#N)n2C[C@H](O)CO [Compound 217]
